Results: publication PMC8876215, “Anticancer Activity of the Choline Kinase Inhibitor PL48 Is Due to Selective Disruption of Choline Metabolism and Transport Systems in Cancer Cell Lines” (Pharmaceutics, 2022)

Target: T1, ChoKα1 (choline kinase α1) (Homo sapiens, UniProt P35790)
T1 construct: gene CHKA; truncated form of ChoKα1 (Δ75–457), N-terminal 6x His-tag
Experiment: radiometric assay: [methyl-14C]choline to phosphocholine by purified recombinant enzyme, TLC and scintillation counting
Assay type: biochemical

T1 sequence (P35790 75-457): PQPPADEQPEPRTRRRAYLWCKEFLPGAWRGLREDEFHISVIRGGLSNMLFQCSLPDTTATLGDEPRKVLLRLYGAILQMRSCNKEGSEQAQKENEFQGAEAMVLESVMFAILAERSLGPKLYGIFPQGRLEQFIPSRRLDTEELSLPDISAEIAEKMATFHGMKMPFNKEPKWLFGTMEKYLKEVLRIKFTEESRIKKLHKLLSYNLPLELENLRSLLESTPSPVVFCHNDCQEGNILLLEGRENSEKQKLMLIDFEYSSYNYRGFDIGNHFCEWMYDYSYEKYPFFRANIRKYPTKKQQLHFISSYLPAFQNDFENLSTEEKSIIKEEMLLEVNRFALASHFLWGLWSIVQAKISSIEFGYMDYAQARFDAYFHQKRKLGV

IC50: 658 ± 67 nM
SMILES: Clc1ccc2c(N3CCCC3)cc[n+](Cc3ccc(SCCSc4ccc(C[n+]5ccc(N6CCCC6)c6ccc(Cl)cc65)cc4)cc3)c2c1 [PL48]
